Reference: US10947201B2, “Certain chemical entities, compositions, and methods” (NEUPHARMA, INC., priority 2015, dated 2021)
pIC50: −log10 of the molar value.

Assays:
[1] = biological target: T1, EGFR (ErbB1) T790M L858R (Homo sapiens, UniProt P00533, L858R/T790M); experiment: Z'-LYTE kinase inhibition assay (Invitrogen), EGFR L858R/T790M; type: biochemical; conditions: for inhibition at 0.0137 µM: compound at 13.7 nM, 10 μM of ATP; for inhibition at 0.1 µM: compound at 100 nM, [ATP] = Km
T1 construct: purchased Invitrogen
Procedure: (§1) Inhibitory activities of compounds against BTK, EGFR and EGFR mutants (EGFR L858R/T790M) were measured by Invitrogen using Z′-LYTE® Method as briefly described in the following.
(§2) Test Compounds are screened in 1% DMSO (final) in the well. For 10 point titrations, 3-fold serial dilutions are conducted from the starting concentration. All ATP Solutions are diluted to a 4× working concentration in Kinase Buffer (50 mM HEPES pH 7.5, 0.01% BRIJ-35, 10 mM MgCl2, 1 mM EGTA). Peptide/Kinase Mixtures are diluted to a 2× working concentration in the appropriate Kinase Buffers as described below.
(iv) Peptide/Kinase Mixtures for measurement of EGFR (ErbB1) T790M L858R:
The 2×EGFR (ErbB1) T790M L858R/Tyr 04 mixture is prepared in 50 mM HEPES pH 6.5, 0.01% BRIJ-35, 10 mM MgCl2, 1 mM EGTA, 0.02% NaN3. The final 10 μL Kinase Reaction consists of 0.38-4.22 ng EGFR (ErbB1) T790M L858R and 2 μM Tyr 04 in 50 mM HEPES pH 7.0, 0.01% BRIJ-35, 10 mM MgCl2, 1 mM EGTA, 0.01% NaN3. After the 1 hour Kinase Reaction incubation, 5 μL of a 1:64 dilution of Development Reagent B is added.
(§3) Reaction starts by 30-second shaking of mixture consisting of 2.5 μL 4× test compound, 5 μL 2× kinase reaction mixture and 2.5 μL 4×ATP Solution on Bar-coded Corning, low volume NBS, black 384-well plate (Corning Cat. #3676). Then the mixture is incubated for 60-minute at room temperature for the kinase reaction, followed by addition of 5 μL of a 1:1024 dilution of development reagent A and 30-second plate shake. The mixture is then incubated for another 60-minute at room temperature for development reaction. Finally fluorescence is read by plate reader. […] The scale utilized in Tables 2 and 3 is as follows: ++ more than 50% inhibition and + less than 50% inhibition.
(§4) To determine IC50 of a compound against EGFR or EGFR mutants, a series of concentrations of the compound were tested for the inhibition. IC50 was calculated by plotting the concentration of compound vs the percentage of inhibition in treated wells using GraphPad Prism 5. […] The scale utilized in Table 4 is as follows: ++ less than 100 nM and + greater than 100 nM.

[2] = system: H1975 cells; experiment: MTT cell growth inhibition assay, H1975; type: cell-based; conditions: Homo sapiens, NCI-H1975, H1975 cells (EGFR L858R/T790M), 72 h
Procedure: (§5) Inhibition of cell growth by compounds was measured using MTT assay (Mosmann, T., Journal of Immunological Methods, 1983, 65, 55-63). Tumor cell lines were purchased from ATCC (American Type Culture Collection, Manassas, Va.). All cell lines were maintained in RPMI 1640 (Hyclone) supplemented with 10% fetal bovine serum (FBS, Hyclone), glutamine (2 mM, Hyclone), and antibiotics (penicillin 100 U/mL and streptomycin 50 μg/mL) at 37° C. in a humidified atmosphere of 5% CO2 in air. Taxol (as a positive control, Sigma) and compounds were dissolved in DMSO (Sigma), and the final concentration of DMSO in the medium was 1%. Tumor cells were plated in 96-well plates at densities of about 4000 cells/well of a 96-well plate and allowed to adhere/grow for 24 h. They were then treated with various concentrations of drug for 72 h. 3-(4,5-Dimethylthiazol-2-yl)-2,5-diphenyltetrazolium bromide (MTT, Sigma) was used to determine the number of viable cells at the time of compound addition and the number of cells remaining after 72 h compound exposure. The number of cells remaining after 72 h was compared to the number of viable cells at the time of compound addition by measuring the absorbance at 570 nm, allowing for the calculation of growth inhibition.
(§6) All concentrations of compounds were tested in triplicate and controls were averaged over 4 wells. IC50 was calculated by plotting the concentration of compound vs the percentage of inhibition in treated wells using GraphPad Prism 5.
(§7) Tables 5 show IC50 values of several compounds of the invention in A549, A431, H1299, and H1975 human cancer cells. A549 cells have a mutation on KRAS, H3255 cells have L858R mutation, and H1975 cells have double EGFR mutations (L858R/T790M). The scale utilized in Table 5 is as follows: +++ less than 100 nM; ++ between 100 nM and 500 nM; and + greater than 500 nM.

[3] = biological target: T2, EGFR (ErbB1) (Homo sapiens, UniProt P00533); experiment: Z'-LYTE kinase inhibition assay (Invitrogen), EGFR; type: biochemical; conditions: for inhibition at 0.041 µM: compound at 41 nM, 10 μM of ATP; for inhibition at 0.1 µM: compound at 100 nM, [ATP] = Km
T2 construct: purchased Invitrogen
Procedure: as §1, §2
(i) Peptide/Kinase Mixtures for measurement of EGFR (ErbB1):
The 2×EGFR (ErbB1)/Tyr 04 mixture is prepared in 50 mM HEPES pH 7.5, 0.01% BRIJ-35, 10 mM MgCl2, 4 mM MnCl2, 1 mM EGTA, 2 mMDTT. The final 10 μL Kinase Reaction consists of 1.1-5.25 ng EGFR (ErbB1) and 2 μM Tyr 04 in 50 mM HEPES pH 7.5, 0.01% BRIJ-35, 10 mM MgCl2, 2 mM MnCl2, 1 mM EGTA, 1 mM DTT. After the 1 hour Kinase Reaction incubation, 5 μL of a 1:64 dilution of DevelopmentReagent B is added.
as §3, §4

[4] = biological target: T3, BTK (Homo sapiens, UniProt Q06187); experiment: Z'-LYTE kinase inhibition assay (Invitrogen), BTK; type: biochemical; conditions: for inhibition at 0.1 µM: compound at 100 nM, [ATP] = Km
T3 construct: purchased Invitrogen
Procedure: as §1, §2
(v) Peptide/Kinase Mixtures for measurement of BTK:
The 2×BTK/Tyr 01 mixture is prepared in 50 mM HEPES pH 7.5, 0.01% BRIJ-35, 10 mM MgCl2, 1 mM EGTA. The final 10 μL Kinase Reaction consists of 1.04-10.4 ng BTK and 2 μM Tyr 01 in 50 mM HEPES pH 7.5, 0.01% BRIJ-35, 10 mM MgCl2, 1 mM EGTA. After the 1 hour Kinase Reaction incubation, 5 μL of a 1:256 dilution of Development Reagent B is added.
as §3, §4

[5] = system: A549 cells; experiment: MTT cell growth inhibition assay, A549; type: cell-based; conditions: Homo sapiens, A549 cells (KRAS mutation), 72 h
Procedure: as §5, §6, §7

T3 sequence (Q06187 whole entry): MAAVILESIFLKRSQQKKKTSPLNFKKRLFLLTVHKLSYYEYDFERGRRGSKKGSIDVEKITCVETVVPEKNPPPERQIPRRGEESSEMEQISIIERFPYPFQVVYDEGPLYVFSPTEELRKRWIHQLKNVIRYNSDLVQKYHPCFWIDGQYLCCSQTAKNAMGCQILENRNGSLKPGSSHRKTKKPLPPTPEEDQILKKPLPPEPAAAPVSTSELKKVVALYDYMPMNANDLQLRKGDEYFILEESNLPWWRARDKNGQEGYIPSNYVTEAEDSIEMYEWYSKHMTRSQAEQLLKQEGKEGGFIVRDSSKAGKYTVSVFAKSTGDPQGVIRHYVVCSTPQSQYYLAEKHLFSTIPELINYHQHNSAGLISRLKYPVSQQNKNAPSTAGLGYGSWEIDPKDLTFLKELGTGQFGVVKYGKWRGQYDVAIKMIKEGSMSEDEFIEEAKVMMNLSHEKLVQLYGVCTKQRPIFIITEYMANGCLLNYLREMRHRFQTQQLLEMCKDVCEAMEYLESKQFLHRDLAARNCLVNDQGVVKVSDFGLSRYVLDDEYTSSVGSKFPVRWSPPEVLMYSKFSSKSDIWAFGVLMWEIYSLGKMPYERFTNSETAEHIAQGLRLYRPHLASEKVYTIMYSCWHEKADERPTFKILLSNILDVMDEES
T2 sequence (P00533 25-1210): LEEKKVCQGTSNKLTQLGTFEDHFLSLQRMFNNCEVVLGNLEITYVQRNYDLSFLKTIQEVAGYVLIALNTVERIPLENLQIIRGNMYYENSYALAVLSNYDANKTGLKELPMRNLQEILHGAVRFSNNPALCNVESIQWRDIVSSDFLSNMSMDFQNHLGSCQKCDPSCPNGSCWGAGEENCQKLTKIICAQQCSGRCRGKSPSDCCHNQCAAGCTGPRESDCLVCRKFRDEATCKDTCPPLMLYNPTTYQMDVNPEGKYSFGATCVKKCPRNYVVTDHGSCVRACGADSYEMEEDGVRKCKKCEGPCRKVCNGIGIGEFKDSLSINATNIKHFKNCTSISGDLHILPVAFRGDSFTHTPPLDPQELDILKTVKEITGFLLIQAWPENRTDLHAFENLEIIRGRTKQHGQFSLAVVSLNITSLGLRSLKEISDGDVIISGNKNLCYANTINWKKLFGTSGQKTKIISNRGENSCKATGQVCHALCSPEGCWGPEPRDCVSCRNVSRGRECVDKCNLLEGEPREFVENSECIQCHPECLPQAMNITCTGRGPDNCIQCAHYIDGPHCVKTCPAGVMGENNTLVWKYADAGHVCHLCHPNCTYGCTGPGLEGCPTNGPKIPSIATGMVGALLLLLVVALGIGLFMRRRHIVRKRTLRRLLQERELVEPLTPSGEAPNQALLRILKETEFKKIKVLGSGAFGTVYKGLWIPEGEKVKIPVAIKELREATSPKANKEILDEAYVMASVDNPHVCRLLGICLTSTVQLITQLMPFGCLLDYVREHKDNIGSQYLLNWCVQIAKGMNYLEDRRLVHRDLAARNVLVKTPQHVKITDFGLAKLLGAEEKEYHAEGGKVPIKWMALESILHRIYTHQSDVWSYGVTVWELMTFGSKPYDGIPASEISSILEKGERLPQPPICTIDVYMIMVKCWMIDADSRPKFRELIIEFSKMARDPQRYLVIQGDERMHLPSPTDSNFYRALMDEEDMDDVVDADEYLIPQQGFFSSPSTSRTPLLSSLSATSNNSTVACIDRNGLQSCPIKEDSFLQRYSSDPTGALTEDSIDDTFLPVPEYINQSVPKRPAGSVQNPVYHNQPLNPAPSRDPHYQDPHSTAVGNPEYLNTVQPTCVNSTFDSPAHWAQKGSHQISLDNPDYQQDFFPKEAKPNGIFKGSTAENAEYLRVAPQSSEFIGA
T1 sequence (P00533 25-1210 T790M/L858R): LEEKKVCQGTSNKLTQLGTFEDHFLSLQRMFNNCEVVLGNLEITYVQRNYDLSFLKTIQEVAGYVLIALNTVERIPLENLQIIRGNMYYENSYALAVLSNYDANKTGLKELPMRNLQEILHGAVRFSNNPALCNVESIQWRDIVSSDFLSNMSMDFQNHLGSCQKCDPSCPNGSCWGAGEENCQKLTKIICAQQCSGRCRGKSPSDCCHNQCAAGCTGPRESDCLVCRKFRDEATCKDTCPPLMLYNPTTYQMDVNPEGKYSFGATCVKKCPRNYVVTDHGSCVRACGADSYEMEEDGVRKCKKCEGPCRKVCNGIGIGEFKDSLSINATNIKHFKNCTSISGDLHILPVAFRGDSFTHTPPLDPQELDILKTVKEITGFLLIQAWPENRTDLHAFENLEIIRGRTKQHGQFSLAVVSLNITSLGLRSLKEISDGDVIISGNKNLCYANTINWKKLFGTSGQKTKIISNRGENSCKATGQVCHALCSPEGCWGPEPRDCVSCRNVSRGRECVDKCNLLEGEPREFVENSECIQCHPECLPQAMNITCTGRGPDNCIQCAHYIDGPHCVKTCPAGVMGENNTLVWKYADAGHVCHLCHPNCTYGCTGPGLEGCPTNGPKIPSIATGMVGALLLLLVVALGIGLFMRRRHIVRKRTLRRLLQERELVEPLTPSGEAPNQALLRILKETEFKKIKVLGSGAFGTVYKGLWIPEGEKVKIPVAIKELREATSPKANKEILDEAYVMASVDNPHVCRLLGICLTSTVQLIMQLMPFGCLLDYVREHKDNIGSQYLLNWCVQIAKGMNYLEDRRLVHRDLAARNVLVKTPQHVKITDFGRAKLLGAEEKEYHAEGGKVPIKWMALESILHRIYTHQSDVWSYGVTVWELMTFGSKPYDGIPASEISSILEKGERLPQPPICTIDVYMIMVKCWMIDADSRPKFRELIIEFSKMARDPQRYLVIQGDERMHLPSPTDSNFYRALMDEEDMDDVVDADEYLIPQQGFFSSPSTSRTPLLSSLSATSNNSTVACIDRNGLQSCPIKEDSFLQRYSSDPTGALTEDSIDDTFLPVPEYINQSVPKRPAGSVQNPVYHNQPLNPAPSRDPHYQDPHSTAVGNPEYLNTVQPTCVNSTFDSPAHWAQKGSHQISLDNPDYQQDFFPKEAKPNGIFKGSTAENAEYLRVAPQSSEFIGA

SMILES	inhibition at 0.0137 µM [1] [%]	inhibition at 0.1 µM [1] [%]	pIC50 [2]	inhibition at 0.041 µM [3] [%]	inhibition at 0.1 µM [3] [%]	inhibition at 0.1 µM [4] [%]	pIC50 [5]	inhibition at 0.041 µM ([4]; compound at 41 nM, 10 μM of ATP) [%]
C=CC(=O)Nc1cc(Nc2ncc3cccc(-c4cccc(Cl)c4)c3n2)ccc1OCCN(C)C [Example C012, N-(5-((8-(3-chlorophenyl)quinazolin-2-yl)amino)-2-(2-(dimethylamino)ethoxy)phenyl)acrylamide]	> 50	< 50	> 7.00	< 50	< 50	> 50		
C=CC(=O)Nc1cc(Nc2ncc3cccc(-c4cccc(F)c4)c3n2)c(OC)cc1N(C)CCN(C)C [Example C018, N-(2-((2-(dimethylamino)ethyl)(methyl)amino)-5-((8-(3-fluorophenyl)quinazolin-2-yl)amino)-4-methoxyphenyl)acrylamide]		> 50	> 7.00		> 50	> 50	6.30 to 7.00	
C=CC(=O)Nc1cc(Nc2ncc3cccc(-c4ccncc4)c3n2)ccc1N(C)CCN(C)C [Example C007, N-(2-((2-(dimethylamino)ethyl)(methyl)amino)-5-((8-(pyridin-4-yl)quinazolin-2-yl)amino)phenyl)acrylamide]	< 50	< 50	> 7.00	< 50	< 50	> 50		> 50
C=CC(=O)Nc1cc(Nc2ncc3cccc(-c4cccc(Cl)c4)c3n2)ccc1N1CCOCC1 [Example C016, N-(5-((8-(3-chlorophenyl)quinazolin-2-yl)amino)-2-morpholinophenyl)acrylamide]	< 50	< 50	> 7.00	< 50	< 50	< 50		
C=CC(=O)Nc1cc(Nc2ncc3cccc(-c4ccccc4Cl)c3n2)ccc1OCCN(C)C [Example C014, N-(5-((8-(2-chlorophenyl)quinazolin-2-yl)amino)-2-(2-(dimethylamino)ethoxy)phenyl)acrylamide]	< 50	< 50	> 7.00	< 50	< 50	> 50		
C=CC(=O)Nc1cc(Nc2ncc3cccc(-c4cccc(Cl)c4)c3n2)c(OC)cc1N(C)CCN(C)C [Example C017, N-(5-((8-(3-chlorophenyl)quinazolin-2-yl)amino)-2-((2-(dimethylamino)ethyl)(methyl)amino)-4-methoxyphenyl)acrylamide]		> 50	> 7.00		> 50	> 50	6.30 to 7.00	
C=CC(=O)Nc1cc(Nc2ncc3cccc(Br)c3n2)ccc1N(C)CCN(C)C [Example C001, N-(5-((8-bromoquinazolin-2-yl)amino)-2-((2-(dimethylamino)ethyl)(methyl)amino)phenyl) acrylamide]	< 50		> 7.00					
